Source: ChEMBL document CHEMBL5108030, “Structure activity relationships leading to the identification of the indirect activator of AMPK, R419” (Bioorg Med Chem, 2022)
Activity calls are given as the source filed them. The calls are words filed in the database; no cut-off is given here.

Experiments:
[1] = Drug concentration in high fat diet-induced obesity model of C57BL/6J mouse at 100 mg/kg,po measured after 10 days; type: ADME, organism-based; details: in vivo, time 10 day, read-out: Drug uptake
[2] = system: Mus musculus; experiment: Hypoglycemic activity in high fat diet-induced obesity mouse model assessed as improvement in glucose tolerance at 200 mg/kg,po for 4 weeks by OGTT; type: functional, organism-based
[3] = AUC in C57BL/6J mouse at 5 mg/kg,po measured after 10 days; type: ADME, organism-based; set-up: time 10 day, dose 5 mg/kg, route po; details: in vivo, 240 h
[4] = Half life in rat at 1 mg/kg,iv measured upto 10 hrs; type: ADME, organism-based; details: in vivo
[5] = molecular target: T1, Cytochrome P450 3A4 (Homo sapiens, UniProt P08684); experiment: Inhibition of CYP3A4 (unknown origin) in presence of NADPH; type: ADME
[6] = system: Mus musculus; experiment: Hypoglycemic activity in high fat diet-induced obesity mouse model assessed as decrease in AUC blood glucose at 200 mg/kg,po for 4 weeks by OGTT; type: functional, organism-based
[7] = Clearance in rat at 1 mg/kg,iv measured upto 10 hrs; type: ADME, organism-based; details: in vivo
[8] = Microsomal stability in human liver microsomes assessed as half life; type: ADME, Microsome
[9] = AUC in high fat diet-induced obesity model of C57BL/6J mouse at 100 mg/kg,po measured after 10 days; type: ADME, organism-based; set-up: dose 100 mg/kg, time 10 day, route po; details: in vivo, 240 h
[10] = Volume of distribution at steady state in rat at 1 mg/kg,iv measured upto 10 hrs; type: ADME, organism-based; details: in vivo, read-out: Vdss
[11] = system: A549; experiment: Antiproliferative activity against human A549 cells assessed as cell growth inhibition incubated for 48 hrs by DAPI staining assay; type: functional, cell-based; details: A549, 48 h
[12] = molecular target: AMP-activated protein kinase, AMPK; experiment: Activation of AMPK in human HepG2 cells assessed as increase in ACC phosphorylation at Ser79 incubated for 1 hr; type: cell-based
[13] = Drug concentration in diet-induced obesity model of C57BL/6J mouse at 200 mg/kg,po measured after 10 days; type: ADME, organism-based; details: in vivo, time 10 day, read-out: Drug uptake
[14] = AUC in diet-induced obesity model of C57BL/6J mouse at 100 mg/kg,po measured after 10 days; type: ADME, organism-based; set-up: time 10 day, dose 100 mg/kg, route po; details: in vivo, 240 h
[15] = AUC in rat at 5 mg/kg,po measured upto 10 hrs; type: ADME, organism-based; set-up: time < 10 hrs, dose 5 mg/kg, route po; details: in vivo
[16] = Drug concentration in C57BL/6J mouse at 5 mg/kg,po measured after 10 days; type: ADME, organism-based; details: in vivo, time 10 day, read-out: Drug uptake
[17] = molecular target: hERG (KCNH2) (Homo sapiens, UniProt Q12809); experiment: Inhibition of human ERG at 3 uM; type: toxicity
[18] = system: NCI-H1299; experiment: Antiproliferative activity against human NCI-H1299 cells assessed as cell growth inhibition incubated for 48 hrs by DAPI staining assay; type: functional, cell-based; details: NCI-H1299, 48 h
[19] = molecular target: T1, Cytochrome P450 3A4; experiment: Inhibition of CYP3A4 (unknown origin); type: ADME
[20] = molecular target: AMP-activated protein kinase, AMPK; experiment: Activation of AMPK in human HepG2 cells assessed as reduction in mitochondrial ATP production incubated for 1 hr; type: cell-based
[21] = Drug concentration in diet-induced obesity model of C57BL/6J mouse at 100 mg/kg,po measured after 10 days; type: ADME, organism-based; details: in vivo, time 10 day, read-out: Drug uptake
[22] = Oral bioavailability in rat at 5 mg/kg measured upto 10 hrs; type: ADME, organism-based; details: in vivo
[23] = AUC in diet-induced obesity model of C57BL/6J mouse at 200 mg/kg,po measured after 10 days; type: ADME, organism-based; set-up: time 10 day, dose 200 mg/kg, route po; details: in vivo, 240 h

T1 sequence (P08684 whole entry): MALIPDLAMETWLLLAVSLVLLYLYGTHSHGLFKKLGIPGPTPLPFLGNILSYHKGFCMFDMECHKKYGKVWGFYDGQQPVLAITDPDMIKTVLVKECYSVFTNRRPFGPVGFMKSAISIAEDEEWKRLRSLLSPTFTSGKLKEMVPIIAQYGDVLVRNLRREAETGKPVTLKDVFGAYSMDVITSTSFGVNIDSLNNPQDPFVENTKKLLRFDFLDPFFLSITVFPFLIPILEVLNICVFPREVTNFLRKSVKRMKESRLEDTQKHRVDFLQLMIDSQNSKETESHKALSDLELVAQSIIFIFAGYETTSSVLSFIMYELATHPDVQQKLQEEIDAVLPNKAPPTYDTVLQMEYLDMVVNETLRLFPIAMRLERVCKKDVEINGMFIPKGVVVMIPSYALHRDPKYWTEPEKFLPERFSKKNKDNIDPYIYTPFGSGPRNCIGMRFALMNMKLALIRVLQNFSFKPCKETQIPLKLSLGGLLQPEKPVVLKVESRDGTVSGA
Sequence of hERG (KCNH2) (Q12809 whole entry): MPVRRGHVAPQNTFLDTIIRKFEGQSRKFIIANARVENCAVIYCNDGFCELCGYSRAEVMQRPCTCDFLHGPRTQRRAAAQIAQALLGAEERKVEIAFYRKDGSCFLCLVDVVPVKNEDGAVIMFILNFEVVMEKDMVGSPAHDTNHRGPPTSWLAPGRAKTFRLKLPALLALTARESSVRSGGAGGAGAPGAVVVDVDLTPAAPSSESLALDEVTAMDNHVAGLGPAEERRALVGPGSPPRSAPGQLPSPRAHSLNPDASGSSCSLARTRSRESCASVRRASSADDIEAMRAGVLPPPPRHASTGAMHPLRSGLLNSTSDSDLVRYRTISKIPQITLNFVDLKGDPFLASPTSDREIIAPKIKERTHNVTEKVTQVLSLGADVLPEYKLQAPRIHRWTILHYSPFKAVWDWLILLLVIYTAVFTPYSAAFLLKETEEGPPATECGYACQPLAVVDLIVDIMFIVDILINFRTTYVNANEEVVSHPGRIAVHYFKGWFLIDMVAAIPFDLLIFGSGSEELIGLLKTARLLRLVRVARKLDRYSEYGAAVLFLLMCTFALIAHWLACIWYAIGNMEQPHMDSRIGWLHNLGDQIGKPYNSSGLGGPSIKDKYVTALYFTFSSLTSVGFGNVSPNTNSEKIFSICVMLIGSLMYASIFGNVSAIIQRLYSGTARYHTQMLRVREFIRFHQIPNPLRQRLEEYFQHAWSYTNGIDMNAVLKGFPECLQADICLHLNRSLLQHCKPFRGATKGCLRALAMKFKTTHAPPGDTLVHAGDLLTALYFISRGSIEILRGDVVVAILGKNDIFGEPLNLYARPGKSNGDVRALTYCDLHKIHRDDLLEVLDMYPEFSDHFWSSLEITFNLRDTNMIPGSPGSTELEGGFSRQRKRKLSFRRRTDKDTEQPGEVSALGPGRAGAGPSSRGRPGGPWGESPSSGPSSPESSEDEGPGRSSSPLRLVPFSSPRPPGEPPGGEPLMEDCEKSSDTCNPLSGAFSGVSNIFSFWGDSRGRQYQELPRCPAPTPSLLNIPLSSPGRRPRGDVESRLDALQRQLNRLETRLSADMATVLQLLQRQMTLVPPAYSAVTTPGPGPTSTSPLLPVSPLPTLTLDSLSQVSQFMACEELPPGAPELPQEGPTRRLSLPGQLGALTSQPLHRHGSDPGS

COc1ccc(C(=O)C2CCN(C(=O)c3ccc(C(=O)NC4CCN(Cc5ccc(C#N)cc5)CC4)cn3)CC2)cc1
concentration at 240 h [1]: 64 ng/mL | Activity [2]: Active | AUC [3]: 937 ng·h/kg | half-life [4]: 2.7 h | IC50 [5]: > 10 µM | Activity [6]: Active | clearance [7]: 150 mL/min/kg | half-life [8]: 1.18 h | AUC [9]: 1283 ng·h/kg | Vd [10]: 15.1 L/kg | IC50 [11]: > 20 µM | EC50 [12]: 0.031 µM | concentration at 240 h [13]: 140 ng/mL | AUC [14]: 1339 ng·h/kg | AUC at 10 h [15]: 256 ng·h/mL | concentration at 240 h [16]: 440 ng/mL | inhibition at 3 µM [17]: 61% | IC50 [18]: > 20 µM | IC50 [19]: > 10 µM | IC50 [20]: 0.00282 µM | concentration at 240 h [21]: 84 ng/mL | bioavailability [22]: 46% | AUC [23]: 2429 ng·h/kg
